Patent US10660877B2 (BRISTOL-MYERS SQUIBB COMPANY, priority 2016, dated 2020)
Read-outs that look alike come from different tables or passages of the source.

Experiments:
human TLR8 = human TLR8 (Homo sapiens (Human), UniProt Q9NR97); experiment: TLR8 inhibition reporter assay (HEK-Blue cells, SEAP reporter, R848 stimulation);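 note: compounds tested from 0.05 nM to 50 µM, 22 h at 37 °C, SEAP measured with HEK-Blue Detection, inhibition relative to agonist plus DMSO versus a known inhibitor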
human TLR7 = human TLR7 (Homo sapiens (Human), UniProt Q9NYK1); experiment: TLR7 inhibition reporter assay (HEK-Blue cells, SEAP reporter, gardiquimod stimulation); format: cell-based
human TLR9 = human TLR9 (Homo sapiens (Human), UniProt Q9NR96); experiment: TLR9 inhibition reporter assay (HEK-Blue cells, SEAP reporter, ODN2006 stimulation);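 note: compounds tested over 0.05 nM to 50 µM, 22 h incubation, inhibition taken as SEAP signal drop from agonist plus DMSO wells toward a known inhibitor control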
[1] = read-out: TLR8 IC50, HEK-Blue cells overexpressing human TLR8, R848 15.9 μM
[2] = HEK-Blue cells overexpressing human TLR7, gardiquimod 7.5 μM
[3] = read-out: TLR9 IC50, HEK-Blue cells overexpressing human TLR9, ODN2006 5 nM
[4] = read-out: TLR8 IC50, HEK-Blue cells, R848 15.9 μM
[5] = HEK-Blue cells, gardiquimod 7.5 μM
[6] = read-out: TLR9 IC50, HEK-Blue cells, ODN2006 5 nM
[7] = TLR8 IC50, HEK-Blue cells overexpressing human TLR8, R848 15.9 μM
[8] = TLR9 IC50, HEK-Blue cells overexpressing human TLR9, ODN2006 5 nM

Chain of human TLR9 (Q9NR96 26-1032): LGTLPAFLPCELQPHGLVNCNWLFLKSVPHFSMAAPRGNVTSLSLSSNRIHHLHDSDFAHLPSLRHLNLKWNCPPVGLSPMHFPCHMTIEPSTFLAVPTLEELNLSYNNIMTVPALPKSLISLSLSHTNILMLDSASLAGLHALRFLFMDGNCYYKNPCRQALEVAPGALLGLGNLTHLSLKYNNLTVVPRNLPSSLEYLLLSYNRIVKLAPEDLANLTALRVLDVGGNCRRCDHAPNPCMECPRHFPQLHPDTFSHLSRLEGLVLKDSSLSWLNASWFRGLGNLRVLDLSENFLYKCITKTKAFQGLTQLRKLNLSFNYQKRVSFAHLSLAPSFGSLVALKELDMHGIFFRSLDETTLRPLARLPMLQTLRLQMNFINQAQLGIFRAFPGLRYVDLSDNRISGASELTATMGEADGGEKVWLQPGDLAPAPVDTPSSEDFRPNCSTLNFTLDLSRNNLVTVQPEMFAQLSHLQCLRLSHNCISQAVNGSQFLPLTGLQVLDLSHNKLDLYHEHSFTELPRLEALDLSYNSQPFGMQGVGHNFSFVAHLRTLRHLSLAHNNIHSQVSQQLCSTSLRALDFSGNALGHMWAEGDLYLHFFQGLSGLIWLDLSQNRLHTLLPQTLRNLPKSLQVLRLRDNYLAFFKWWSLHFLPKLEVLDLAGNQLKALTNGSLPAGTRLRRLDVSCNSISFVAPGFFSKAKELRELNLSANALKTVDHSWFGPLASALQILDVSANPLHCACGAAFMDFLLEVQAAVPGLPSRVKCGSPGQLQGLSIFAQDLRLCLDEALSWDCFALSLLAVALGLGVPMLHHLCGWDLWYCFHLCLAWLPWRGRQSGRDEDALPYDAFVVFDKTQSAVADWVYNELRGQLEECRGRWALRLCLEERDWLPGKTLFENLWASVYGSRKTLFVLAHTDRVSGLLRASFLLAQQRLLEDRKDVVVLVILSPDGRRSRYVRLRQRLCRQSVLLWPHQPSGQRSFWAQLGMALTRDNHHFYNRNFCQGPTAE
Chain of human TLR8 (Q9NR97 27-1041): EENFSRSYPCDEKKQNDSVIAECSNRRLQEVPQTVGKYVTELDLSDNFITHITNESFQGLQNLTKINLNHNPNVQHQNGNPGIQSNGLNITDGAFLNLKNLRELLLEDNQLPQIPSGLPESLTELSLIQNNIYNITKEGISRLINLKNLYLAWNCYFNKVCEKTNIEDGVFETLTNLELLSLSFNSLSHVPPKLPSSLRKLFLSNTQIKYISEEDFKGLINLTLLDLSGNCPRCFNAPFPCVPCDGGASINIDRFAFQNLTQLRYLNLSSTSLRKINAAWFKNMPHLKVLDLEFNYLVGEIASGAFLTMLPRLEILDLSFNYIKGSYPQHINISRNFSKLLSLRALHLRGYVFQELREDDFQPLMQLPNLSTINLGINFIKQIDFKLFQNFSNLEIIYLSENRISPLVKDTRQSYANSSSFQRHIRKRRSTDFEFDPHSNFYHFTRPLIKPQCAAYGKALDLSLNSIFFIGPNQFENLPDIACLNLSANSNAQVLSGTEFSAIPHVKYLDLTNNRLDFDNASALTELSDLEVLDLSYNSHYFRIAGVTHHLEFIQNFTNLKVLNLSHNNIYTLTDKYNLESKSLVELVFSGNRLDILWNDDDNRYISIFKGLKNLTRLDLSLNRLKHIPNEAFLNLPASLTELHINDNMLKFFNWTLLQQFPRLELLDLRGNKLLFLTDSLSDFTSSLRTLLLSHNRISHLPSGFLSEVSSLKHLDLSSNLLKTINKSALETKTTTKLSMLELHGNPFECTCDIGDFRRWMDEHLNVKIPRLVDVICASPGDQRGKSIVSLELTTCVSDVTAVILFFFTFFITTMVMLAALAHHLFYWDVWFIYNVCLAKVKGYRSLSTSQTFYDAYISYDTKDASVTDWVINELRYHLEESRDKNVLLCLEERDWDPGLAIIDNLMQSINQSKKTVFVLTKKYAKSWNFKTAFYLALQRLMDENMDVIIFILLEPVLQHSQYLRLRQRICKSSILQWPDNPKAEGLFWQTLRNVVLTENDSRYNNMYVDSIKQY
Chain of human TLR7 (Q9NYK1 27-1049): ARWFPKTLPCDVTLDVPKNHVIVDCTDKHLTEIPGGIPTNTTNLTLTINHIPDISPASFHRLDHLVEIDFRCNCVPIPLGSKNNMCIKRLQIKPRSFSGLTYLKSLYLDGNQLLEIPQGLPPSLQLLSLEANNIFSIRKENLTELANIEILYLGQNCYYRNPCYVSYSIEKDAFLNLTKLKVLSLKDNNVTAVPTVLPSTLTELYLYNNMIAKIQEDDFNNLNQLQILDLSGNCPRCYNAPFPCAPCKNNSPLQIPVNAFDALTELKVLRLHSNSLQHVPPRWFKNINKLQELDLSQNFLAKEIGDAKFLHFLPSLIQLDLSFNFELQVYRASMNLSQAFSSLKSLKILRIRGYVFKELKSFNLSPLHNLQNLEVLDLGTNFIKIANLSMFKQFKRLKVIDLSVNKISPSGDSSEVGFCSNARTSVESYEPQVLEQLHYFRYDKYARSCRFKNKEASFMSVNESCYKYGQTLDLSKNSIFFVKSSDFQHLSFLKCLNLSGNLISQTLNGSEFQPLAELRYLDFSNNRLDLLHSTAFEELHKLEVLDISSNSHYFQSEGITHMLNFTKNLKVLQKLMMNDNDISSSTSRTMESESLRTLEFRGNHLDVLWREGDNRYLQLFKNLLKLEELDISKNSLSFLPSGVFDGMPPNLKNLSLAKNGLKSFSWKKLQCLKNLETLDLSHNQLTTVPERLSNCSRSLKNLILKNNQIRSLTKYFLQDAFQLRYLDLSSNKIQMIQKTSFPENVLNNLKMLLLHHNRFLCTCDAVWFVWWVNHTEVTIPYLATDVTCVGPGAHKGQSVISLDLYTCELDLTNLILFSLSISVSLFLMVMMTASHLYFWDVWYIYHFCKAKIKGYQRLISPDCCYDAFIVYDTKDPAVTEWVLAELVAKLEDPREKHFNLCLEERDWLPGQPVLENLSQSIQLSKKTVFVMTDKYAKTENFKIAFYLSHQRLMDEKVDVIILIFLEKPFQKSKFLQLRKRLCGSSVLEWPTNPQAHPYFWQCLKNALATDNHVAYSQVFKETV

Row | Structure (SMILES) | IC50 (human TLR8; [1]) | IC50 (human TLR7; [2]) | IC50 (human TLR9; [3]) | IC50 (human TLR8; [4]) | IC50 (human TLR7; [5]) | IC50 (human TLR9; [6]) | IC50 (human TLR8; [7]) | IC50 (human TLR9; [8])
1 | Cc1cc(-c2[nH]c3ccc(C4CCNCC4)cc3c2C(C)C)ccn1 [Example 5, 3-isopropyl-2-(2-methylpyridin-4-yl)-5-(piperidin-4-yl)-1H-indole] | 3.9 nM | 6.1 nM | 946 nM | – | – | – | – | –
2 | CC(C)c1c(-c2ccnc(Cl)c2C#N)[nH]c2ccc(C3CCNCC3)cc12 [Example 36, 2-chloro-4-(3-isopropyl-5-(piperidin-4-yl)-1H-indol-2-yl)nicotinonitrile] | 454 nM | 1270 nM | 4870 nM | – | – | – | – | –
3 | Cc1cc(-c2[nH]c3ccc(C4CCN(S(=O)(=O)c5ccccc5)CC4)cc3c2C(C)C)ccn1 [Example 547, 3-isopropyl-2-(2-methylpyridin-4-yl)-5-(1-(phenylsulfonyl)piperidin-4-yl)-1H-indole] | 1040 nM | 333 nM | > 50000 nM | – | – | – | – | –
4 | Cc1cc(-c2[nH]c3ccc(C4CCN(C(=O)CNC5(C)CCC5)CC4)cc3c2C(C)C)cc(C)n1 [Example 353, 1-(4-(2-(2,6-dimethylpyridin-4-yl)-3-isopropyl-1H-indol-5-yl)piperidin-1-yl)-2-((1-methylcyclobutyl)amino)ethan-1-one] | 9.5 nM | 4 nM | 429 nM | – | – | – | – | –
5 | CNC(=O)CN1CCC(c2ccc3[nH]c(-c4cc(C)nc(C)c4F)c(C(C)C)c3c2)CC1 [Example 655, 2-(4-(2-(3-fluoro-2,6-dimethylpyridin-4-yl)-3-isopropyl-1H-indol-5-yl)piperidin-1-yl)-N-methylacetamide] | 4.2 nM | 1.3 nM | 1750 nM | – | – | – | – | –
6 | Cc1cc(-c2[nH]c3ccc(C4CCN(C(=O)Cn5nnc(N6CCOCC6)n5)CC4)cc3c2C(C)C)cc(C)n1 [Example 149, 1-(4-(2-(2,6-dimethylpyridin-4-yl)-3-isopropyl-1H-indol-5-yl)piperidin-1-yl)-2-(5-morpholino-2H-tetrazol-2-yl)ethan-1-one] | 143 nM | 21.6 nM | 16100 nM | – | – | – | – | –
7 | Cc1cc(-c2[nH]c3cc(F)c(C4CCN(C)CC4)cc3c2C(C)C)cc(C)n1 [Example 828, 2-(2,6-dimethylpyridin-4-yl)-6-fluoro-3-isopropyl-5-(1-methylpiperidin-4-yl)-1H-indole] | – | – | – | 4.8 nM | 1.2 nM | 267 nM | – | –
8 | Cc1cc(-c2[nH]c3ccc(C4CCN(C(=O)CNC5(C)CC5)CC4)cc3c2C(C)C)cc(C)n1 [Example 360, 1-(4-(2-(2,6-dimethylpyridin-4-yl)-3-isopropyl-1H-indol-5-yl)piperidin-1-yl)-2-((1-methylcyclopropyl)amino)ethan-1-one] | 15.8 nM | 4 nM | 795 nM | – | – | – | – | –
9 | CCc1c(-c2ccnc(F)c2)[nH]c2ccc(C3CCN(C4CCN(CC(C)C)CC4)CC3)cc12 [Example 759, 3-ethyl-2-(2-fluoropyridin-4-yl)-5-(1′-isobutyl-[1,4′-bipiperidin]-4-yl)-1H-indole] | 257 nM | 1520 nM | 655 nM | – | – | – | – | –
10 | Cc1cc(-c2[nH]c3ccc(C4CCN(CC(=O)N5CCCCC5C)CC4)cc3c2C(C)C)cc(C)n1 (stereo not drawn) [Example 270, 2-(4-(2-(2,6-dimethylpyridin-4-yl)-3-isopropyl-1H-indol-5-yl)piperidin-1-yl)-1-(2-methylpiperidin-1-yl)ethan-1-one] | 15.5 nM | 6.4 nM | 192 nM | – | – | – | – | –
11 | Cc1cc(C(=O)N2CCC(c3ccc4[nH]c(-c5cc(C)nc(C)c5)c(C(C)C)c4c3)CC2)c(=O)[nH]n1 [Example 135, 4-(4-(2-(2,6-dimethylpyridin-4-yl)-3-isopropyl-1H-indol-5-yl)piperidine-1-carbonyl)-6-methylpyridazin-3 (2H)-one] | 99.9 nM | 33.1 nM | 13300 nM | – | – | – | – | –
12 | Cc1cc(-c2[nH]c3ccc(C4CCN(C(=O)CNC5CCOCC5)CC4)cc3c2C(C)C)cc(C)n1 [Example 386, 1-(4-(2-(2,6-dimethylpyridin-4-yl)-3-isopropyl-1H-indol-5-yl)piperidin-1-yl)-2-((tetrahydro-2H-pyran-4-yl)amino)ethan-1-one] | 17.7 nM | 3.6 nM | 280 nM | – | – | – | – | –
13 | Cc1cc(-c2[nH]c3ccc(C4CCN(C(=O)Cn5ncnn5)CC4)cc3c2C(C)C)cc(C)n1 [Example 155, 1-(4-(2-(2,6-dimethylpyridin-4-yl)-3-isopropyl-1H-indol-5-yl)piperidin-1-yl)-2-(2H-tetrazol-2-yl) ethan-1-one] | 31.7 nM | 2.7 nM | 26000 nM | – | – | – | – | –
14 | Cc1cc(-c2[nH]c3ccc(C4CCN(C(=O)C[C@H](C)O)CC4)cc3c2C(C)C)cc(C)n1 [Example 109, (S)-1-(4-(2-(2,6-dimethylpyridin-4-yl)-3-isopropyl-1H-indol-5-yl)piperidin-1-yl)-3-hydroxybutan-1-one] | 150 nM | 10.7 nM | 41400 nM | – | – | – | – | –
15 | CNCCN1CCC(c2ccc3[nH]c(-c4cc(Cl)ncc4OC)c(C)c3c2)CC1 [Example 757, 2-(4-(2-(2-chloro-5-methoxypyridin-4-yl)-3-methyl-1H-indol-5-yl)piperidin-1-yl)-N-methylethan-1-amine] | 93.2 nM | 6670 nM | 1300 nM | – | – | – | – | –
16 | Cc1cc(-c2[nH]c3ccc(C4CCNCC4)cc3c2C(C)C)c(Cl)c(C)n1 [Example 50, 2-(3-chloro-2,6-dimethylpyridin-4-yl)-3-isopropyl-5-(piperidin-4-yl)-1H-indole] | 1.9 nM | 3.2 nM | 12700 nM | – | – | – | – | –
17 | Cc1cc(-c2[nH]c3ccc(C4CCN(C(=O)CC(=O)Nc5nccs5)CC4)cc3c2C(C)C)cc(C)n1 [Example 142, 3-(4-(2-(2,6-dimethylpyridin-4-yl)-3-isopropyl-1H-indol-5-yl)piperidin-1-yl)-3-oxo-N-(thiazol-2-yl)propanamide] | 96.3 nM | 18.2 nM | > 50000 nM | – | – | – | – | –
18 | Cc1cc(-c2[nH]c3ccc(C4CCN(C(=O)C(=O)NCC5CCNCC5)CC4)cc3c2C(C)C)cc(C)n1 [Example 861, 2-(4-(2-(2,6-dimethylpyridin-4-yl)-3-isopropyl-1H-indol-5-yl)piperidin-1-yl)-2-oxo-N-(piperidin-4-ylmethyl)acetamide] | – | – | – | 59 nM | 13.5 nM | 3420 nM | – | –
19 | CC(=O)N1CCC(c2ccc3[nH]c(-c4ccnc(C)c4)c(C(C)C)c3c2)CC1 [Example 826, 1-(4-(3-isopropyl-2-(2-methylpyridin-4-yl)-1H-indol-5-yl)piperidin-1-yl)ethan-1-one] | – | – | – | 186 nM | 42.6 nM | 43400 nM | – | –
20 | CC(C)c1c(-c2ccnc(C(=O)NCC(F)(F)F)c2)[nH]c2ccc(C3CCNCC3)cc12 [Example 476, 4-(3-isopropyl-5-(piperidin-4-yl)-1H-indol-2-yl)-N-(2,2,2-trifluoroethyl) picolinamide] | 1040 nM | 6070 nM | 3260 nM | – | – | – | – | –
21 | Cc1cc(-c2[nH]c3ccc(C4CCN(C(=O)C5CCN(C)CC5)CC4)cc3c2C(C)C)cc(C)n1 [Example 110, (4-(2-(2,6-dimethylpyridin-4-yl)-3-isopropyl-1H-indol-5-yl)piperidin-1-yl)(1-methylpiperidin-4-yl)methanone] | – | 3.9 nM | – | – | – | – | 8.1 nM | 385 nM
22 | CCc1c(-c2ccncc2)[nH]c2ccc(C3CCN(C4CCN(CC(C)C)CC4)CC3)cc12 [Example 779, 3-ethyl-5-(1′-isobutyl-[1,4′-bipiperidin]-4-yl)-2-(pyridin-4-yl)-1H-indole] | 86.6 nM | 2110 nM | 159 nM | – | – | – | – | –
23 | Cc1cc(-c2[nH]c3ccc(C4CCN(CC(=O)N5CCC(F)(F)C5)CC4)cc3c2C(C)C)cc(C)n1 [Example 216, 1-(3,3-difluoropyrrolidin-1-yl)-2-(4-(2-(2,6-dimethylpyridin-4-yl)-3-isopropyl-1H-indol-5-yl)piperidin-1-yl)ethan-1-one] | – | 2.8 nM | – | – | – | – | 7 nM | 315 nM
24 | Cc1cc(-c2[nH]c3ccc(C4CCN(C5CCCOC5)CC4)cc3c2C(C)C)c(F)cn1 (stereo not drawn) [Example 727, 2-(5-fluoro-2-methylpyridin-4-yl)-3-isopropyl-5-(1-(tetrahydro-2H-pyran-3-yl)piperidin-4-yl)-1H-indole] | 3.5 nM | 7.3 nM | 2920 nM | – | – | – | – | –
25 | Cc1cc(-c2[nH]c3ccc(C4CCN(C(=O)[C@@H]5CC(F)(F)CN5)CC4)cc3c2C(C)C)cc(C)n1 [Example 189, (S)-(4,4-difluoropyrrolidin-2-yl)(4-(2-(2,6-dimethylpyridin-4-yl)-3-isopropyl-1H-indol-5-yl)piperidin-1-yl) methanone] | 74.3 nM | 7 nM | 15100 nM | – | – | – | – | –
26 | CNC(=O)CN1CCC(c2ccc3[nH]c(-c4cc(C)ncc4F)c(C(C)C)c3c2)CC1 [Example 654, 2-(4-(2-(5-fluoro-2-methylpyridin-4-yl)-3-isopropyl-1H-indol-5-yl)piperidin-1-yl)-N-methylacetamide] | 3.2 nM | 2.8 nM | 3140 nM | – | – | – | – | –
27 | Cc1cc(-c2[nH]c3ccc(C4CCN(S(=O)(=O)CC(C)C)CC4)cc3c2C(C)C)ccn1 [Example 548, 5-(1-(isobutylsulfonyl)piperidin-4-yl)-3-isopropyl-2-(2-methylpyridin-4-yl)-1H-indole] | 700 nM | 336 nM | > 50000 nM | – | – | – | – | –
28 | Cc1cc(-c2[nH]c3ccc(C4CCN(CC(F)F)CC4)cc3c2C(C)C)c(F)cn1 [Example 649, 5-(1-(2,2-difluoroethyl)piperidin-4-yl)-2-(5-fluoro-2-methylpyridin-4-yl)-3-isopropyl-1H-indole] | 16.2 nM | 45.7 nM | > 50000 nM | – | – | – | – | –
